The source made the active and inactive calls. The calls are words filed in the database; no cut-off is given here.
What was measured:
[1] = target: T1, Histone-arginine methyltransferase CARM1 (Homo sapiens, UniProt Q86X55); assay: Inhibition of PRMT4 in human MDA-MB-231 cells assessed as decrease in BAF155 methylation level incubated for 24 hrs by Western blot analysis; type: cell-based
T1 sequence (Q86X55 whole entry): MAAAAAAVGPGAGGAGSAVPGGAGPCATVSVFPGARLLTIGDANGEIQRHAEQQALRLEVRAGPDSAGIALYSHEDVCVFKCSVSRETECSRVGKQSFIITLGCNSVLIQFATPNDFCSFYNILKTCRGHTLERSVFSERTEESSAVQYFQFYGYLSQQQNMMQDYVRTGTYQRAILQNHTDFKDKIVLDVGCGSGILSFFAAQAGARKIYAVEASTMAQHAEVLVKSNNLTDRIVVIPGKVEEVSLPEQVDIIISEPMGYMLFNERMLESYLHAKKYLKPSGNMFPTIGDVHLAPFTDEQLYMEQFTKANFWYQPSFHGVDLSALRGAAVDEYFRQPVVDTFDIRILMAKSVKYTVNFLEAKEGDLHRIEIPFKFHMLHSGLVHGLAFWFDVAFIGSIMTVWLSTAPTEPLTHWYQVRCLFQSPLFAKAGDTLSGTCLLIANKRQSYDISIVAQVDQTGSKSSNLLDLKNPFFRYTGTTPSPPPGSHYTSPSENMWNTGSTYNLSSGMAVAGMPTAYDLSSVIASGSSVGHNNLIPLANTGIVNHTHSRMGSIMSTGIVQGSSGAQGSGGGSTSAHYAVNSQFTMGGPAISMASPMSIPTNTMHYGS

4T1.2 [2] = assay: Antitumor activity against mouse 4T1.2 cells xenografted in Balb/c mouse assessed as inhibition of tumor growth at 50 mg/kg, ip measured after 4 weeks by caliper method; type: functional, organism-based
[3] = target: T2, Histone-arginine methyltransferase CARM1 (Homo sapiens) (UniProt Q86X55); assay: Inhibition of PRMT4 in human MDA-MB-231 cells assessed as decrease in BAF155 methylation level incubated for 24 to 48 hrs by Western blot analysis; type: cell-based; settings: dose 0.01-20 µM, time 24-48 hrs
T2 sequence (whole entry): T1 sequence (Q86X55 whole entry)

[4] = target: T2, Histone-arginine methyltransferase CARM1 (Homo sapiens); assay: Inhibition of PRMT4 in human MDA-MB-231 cells assessed as decrease in PABP1 methylation level incubated for 24 to 48 hrs by Western blot analysis; type: cell-based; settings: dose 0.01-20 µM, time 24-48 hrs
[5] = target: T2, Histone-arginine methyltransferase CARM1 (Homo sapiens); assay: Potency index, ratio of IC50 for EZM2302 to test compound IC50 for inhibition of PRMT4 in human MDA-MB-231 cells assessed as decrease in BAF155 methylation level incubated for 48 hrs by Western blot analysis; type: cell-based
[6] = target: T1, Histone-arginine methyltransferase CARM1; assay: Inhibition of PRMT4 in human MDA-MB-231 cells assessed as decrease in BAF155 methylation level incubated for 48 hrs by Western blot analysis; type: cell-based
[7] = Toxicity in Balb/c mouse assessed as effect on body weight at 50 mg/kg, ip measured after 4 weeks; type: organism-based; settings: in vivo, 672 h
[8] = target: T2, Histone-arginine methyltransferase CARM1 (Homo sapiens); assay: Inhibition of PRMT4 in human MDA-MB-231 cells assessed as inhibition of BAF155 methylation at 10 uM by Western blot analysis; type: cell-based; settings: time 1-48 hrs
4T1.2 [9] = assay: In vivo inhibition of PRMT4 in mouse 4T1.2 cells xenografted in Balb/c mouse assessed as decrease in BAF155 methylation level at 50 mg/kg, ip by immunoblot analysis; type: functional, organism-based
[10] = target: T1, Histone-arginine methyltransferase CARM1; assay: Inhibition of PRMT4 in human MDA-MB-231 cells assessed as decrease in PABP1 methylation level incubated for 24 hrs by Western blot analysis; type: cell-based
[11] = Plasma protein binding in mouse at 5 uM measured after 5 hrs by LC-MS/MS analysis; type: ADME, cell-free; settings: read-out: PPB (converted)
[12] = Prodrug release in human MDA-MB-231 cells assessed as (2R,3R,4S,5S)-2-(6-amino-9H-purin-9-yl)-5-(((2-((3-bromobenzyl)amino)ethyl)thio)methyl)tetrahydrofuran-3,4-diol formation at 4.5 uM measured after 30 mins by LC-MS analysis; type: ADME, cell-based; settings: mda-mb-231, 0.5 h
[13] = target: T1, Histone-arginine methyltransferase CARM1; assay: Inhibition of PRMT4 in human MDA-MB-231 cells assessed as decrease in PABP1 methylation level incubated for 48 hrs by Western blot analysis; type: cell-based
[14] = Drug recovery in mouse plasma at 5 uM measured after 5 hrs by LC-MS/MS analysis; type: ADME, cell-free; settings: read-out: Drug recovery
[15] = target: T2, Histone-arginine methyltransferase CARM1 (Homo sapiens); assay: Inhibition of PRMT4 in human MDA-MB-231 cells assessed as inhibition of PABP1 methylation at 10 uM by Western blot analysis; type: cell-based
[16] = target: T2, Histone-arginine methyltransferase CARM1 (Homo sapiens); assay: Potency index, ratio of IC50 for TP-064 to test compound IC50 for inhibition of PRMT4 in human MDA-MB-231 cells assessed as decrease in BAF155 methylation level incubated for 48 hrs by Western blot analysis; type: cell-based
MDA-MB-231 = assay: Inhibition of colony formation in human MDA-MB-231 cells at 10 uM incubated for 2 weeks by crystal violet staining based analysis relative to control; type: functional; settings: MDA-MB-231, 336 h
[17] = target: T3, Protein arginine N-methyltransferase 8 (Homo sapiens, UniProt Q9NR22); assay: Inhibition of PRMT8 (unknown origin)
Target sequence in this assay (Q9NR22 whole entry): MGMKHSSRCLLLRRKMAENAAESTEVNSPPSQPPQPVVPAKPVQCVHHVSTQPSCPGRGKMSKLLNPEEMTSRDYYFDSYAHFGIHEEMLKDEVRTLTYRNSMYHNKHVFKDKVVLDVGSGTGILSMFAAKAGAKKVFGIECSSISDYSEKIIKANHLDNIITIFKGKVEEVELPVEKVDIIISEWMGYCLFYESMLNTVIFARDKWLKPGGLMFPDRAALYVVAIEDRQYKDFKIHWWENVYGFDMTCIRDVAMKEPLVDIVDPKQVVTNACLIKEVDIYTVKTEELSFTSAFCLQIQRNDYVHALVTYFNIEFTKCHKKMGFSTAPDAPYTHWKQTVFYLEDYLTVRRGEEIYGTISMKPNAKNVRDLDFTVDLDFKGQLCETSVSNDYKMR

[18] = target: T4, Protein arginine N-methyltransferase 6 (Homo sapiens, UniProt Q96LA8); assay: Inhibition of PRMT6 (unknown origin)
Target sequence in this assay (Q96LA8 whole entry): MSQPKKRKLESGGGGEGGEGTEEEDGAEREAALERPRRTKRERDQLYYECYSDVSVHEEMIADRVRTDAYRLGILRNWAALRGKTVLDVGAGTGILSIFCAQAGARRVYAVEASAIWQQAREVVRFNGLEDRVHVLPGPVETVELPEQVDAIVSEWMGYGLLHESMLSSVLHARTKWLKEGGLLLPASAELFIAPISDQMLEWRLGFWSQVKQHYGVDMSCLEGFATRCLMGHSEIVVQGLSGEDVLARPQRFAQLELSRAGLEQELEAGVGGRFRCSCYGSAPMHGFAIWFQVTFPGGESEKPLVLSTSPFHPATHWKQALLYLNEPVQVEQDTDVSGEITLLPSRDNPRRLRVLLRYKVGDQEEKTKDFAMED

[19] = target: T1, Histone-arginine methyltransferase CARM1; assay: Inhibition of PRMT4 (unknown origin)
[20] = target: T5, Protein arginine N-methyltransferase 7 (Homo sapiens, UniProt Q9NVM4); assay: Inhibition of PRMT7 (unknown origin)
T5 sequence (Q9NVM4 whole entry): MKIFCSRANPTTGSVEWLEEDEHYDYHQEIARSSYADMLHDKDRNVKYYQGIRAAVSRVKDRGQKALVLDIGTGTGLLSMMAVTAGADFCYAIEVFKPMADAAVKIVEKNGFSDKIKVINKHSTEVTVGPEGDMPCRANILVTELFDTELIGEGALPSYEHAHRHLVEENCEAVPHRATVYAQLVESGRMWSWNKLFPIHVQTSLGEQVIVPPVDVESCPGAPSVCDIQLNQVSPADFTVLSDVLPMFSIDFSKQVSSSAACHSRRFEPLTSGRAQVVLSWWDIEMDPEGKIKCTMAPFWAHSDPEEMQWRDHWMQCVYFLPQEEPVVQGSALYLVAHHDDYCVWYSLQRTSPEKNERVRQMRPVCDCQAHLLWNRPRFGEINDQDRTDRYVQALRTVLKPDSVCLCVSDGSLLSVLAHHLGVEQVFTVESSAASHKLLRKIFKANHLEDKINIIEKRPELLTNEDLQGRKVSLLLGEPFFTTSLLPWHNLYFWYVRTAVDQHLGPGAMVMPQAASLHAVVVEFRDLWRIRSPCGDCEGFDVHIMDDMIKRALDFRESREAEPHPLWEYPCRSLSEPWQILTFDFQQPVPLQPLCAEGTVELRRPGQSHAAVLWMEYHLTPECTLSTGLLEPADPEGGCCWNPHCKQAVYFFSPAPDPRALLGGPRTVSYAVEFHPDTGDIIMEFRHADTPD

[21] = target: T6, Protein arginine N-methyltransferase 3 (Homo sapiens, UniProt O60678); assay: Inhibition of PRMT3 (unknown origin)
[22] = target: Protein arginine N-methyltransferase 5 (Homo sapiens, UniProt O14744); assay: Inhibition of PRMT5 (unknown origin)
[23] = target: T5, Protein arginine N-methyltransferase 7; assay: Inhibition of PRMT7 (unknown origin) incubated for 1 hr in presence of 3H-SAM by topcount plate reader analysis
[24] = target: T6, Protein arginine N-methyltransferase 3; assay: Inhibition of PRMT3 (unknown origin) incubated for 1 hr in presence of 3H-SAM by topcount plate reader analysis
PRMT5/MEP50 complex [25] = target: T7, PRMT5/MEP50 complex (Homo sapiens, UniProt O14744); assay: Inhibition of PRMT5/MEP50 (unknown origin) incubated for 1 hr in presence of 3H-SAM by topcount plate reader analysis; type: protein-complex assay
[26] = target: T3, Protein arginine N-methyltransferase 8; assay: Inhibition of PRMT8 (unknown origin) incubated for 1 hr in presence of 3H-SAM by topcount plate reader analysis
Target sequence in this assay (Q9NR22 whole entry): as the sequence (Q9NR22 whole entry) above

[27] = target: T4, Protein arginine N-methyltransferase 6; assay: Inhibition of PRMT6 (unknown origin) incubated for 1 hr in presence of 3H-SAM by topcount plate reader analysis
Target sequence in this assay (Q96LA8 whole entry): as the sequence (Q96LA8 whole entry) above

[28] = target: T1, Histone-arginine methyltransferase CARM1; assay: Inhibition of PRMT4 (unknown origin) incubated for 1 hr in presence of 3H-SAM by topcount plate reader analysis
[29] = target: T8, Protein arginine N-methyltransferase 1 (Homo sapiens, UniProt Q99873); assay: Inhibition of PRMT1 (unknown origin) incubated for 1 hr in presence of 3H-SAM by topcount plate reader analysis
Target sequence in this assay (Q99873 whole entry): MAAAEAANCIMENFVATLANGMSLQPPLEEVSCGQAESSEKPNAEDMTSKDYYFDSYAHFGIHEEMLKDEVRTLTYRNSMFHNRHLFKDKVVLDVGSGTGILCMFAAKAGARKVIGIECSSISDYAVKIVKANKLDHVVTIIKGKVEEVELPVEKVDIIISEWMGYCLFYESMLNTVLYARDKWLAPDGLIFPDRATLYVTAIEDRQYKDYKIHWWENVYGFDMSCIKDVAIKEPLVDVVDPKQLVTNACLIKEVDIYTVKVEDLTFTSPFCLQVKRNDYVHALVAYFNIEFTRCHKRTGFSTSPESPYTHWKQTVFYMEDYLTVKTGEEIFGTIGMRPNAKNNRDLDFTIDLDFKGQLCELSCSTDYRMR

[30] = target: T5, Protein arginine N-methyltransferase 7; assay: Inhibition of human PRMT7 using GST-GAR as substrate and SAM as cofactor by radiometric HotSpot assay
[31] = target: T8, Protein arginine N-methyltransferase 1; assay: Inhibition of human PRMT1 using Histone H4 as substrate and SAM as cofactor by radiometric HotSpot assay
Target sequence in this assay (Q99873 whole entry): as above

[32] = target: T3, Protein arginine N-methyltransferase 8; assay: Inhibition of human PRMT8 using Histone H4 as substrate and SAM as cofactor by radiometric HotSpot assay
Target sequence in this assay (Q9NR22 whole entry): as the sequence (Q9NR22 whole entry) above

[33] = target: T1, Histone-arginine methyltransferase CARM1; assay: Inhibition of human PRMT4 using histone H3 as substrate and SAM as cofactor by radiometric HotSpot assay
PRMT5/MEP50 complex [34] = target: T7, PRMT5/MEP50 complex; assay: Inhibition of human PRMT5/MEP50 using Histone H2 as substrate and SAM as cofactor by radiometric HotSpot assay; type: protein-complex assay
[35] = target: T6, Protein arginine N-methyltransferase 3; assay: Inhibition of human PRMT3 using Histone H3 as substrate and SAM as cofactor by radiometric HotSpot assay
[36] = target: T8, Protein arginine N-methyltransferase 1; assay: Inhibition of human PRMT1 using H4-21peptide as substrate at 10 uM incubated for 10 mins by fluorescence based analysis relative to control
Target sequence in this assay (Q99873 whole entry, looked up): as the sequence (Q99873 whole entry) above

[37] = target: T3, Protein arginine N-methyltransferase 8; assay: Inhibition of human PRMT8 using Histone H4 as substrate and SAM as cofactor at 10 uM by radiometric HotSpot assay relative to control
Target sequence in this assay (Q9NR22 2-394 limits assumed): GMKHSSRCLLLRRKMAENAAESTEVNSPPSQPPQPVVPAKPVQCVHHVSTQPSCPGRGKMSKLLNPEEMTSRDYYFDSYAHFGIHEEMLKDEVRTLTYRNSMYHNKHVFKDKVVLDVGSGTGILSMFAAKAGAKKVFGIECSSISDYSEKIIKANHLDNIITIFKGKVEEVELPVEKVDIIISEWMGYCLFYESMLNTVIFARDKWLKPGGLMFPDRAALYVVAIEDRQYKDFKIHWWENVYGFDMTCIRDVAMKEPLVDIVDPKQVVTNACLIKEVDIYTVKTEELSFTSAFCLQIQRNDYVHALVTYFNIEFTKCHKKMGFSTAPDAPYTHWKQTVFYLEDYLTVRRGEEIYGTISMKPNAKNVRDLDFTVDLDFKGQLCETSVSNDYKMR

[38] = target: T4, Protein arginine N-methyltransferase 6; assay: Inhibition of human PRMT6 using GST-GAR as substrate and SAM as cofactor at 10 uM by radiometric HotSpot assay relative to control
Target sequence in this assay (Q96LA8 whole entry, looked up): as the sequence (Q96LA8 whole entry) above

[39] = Permeability of the compound by PAMPA method; type: ADME; settings: read-out: permeability
[40] = target: PRMT5/MEP50 complex (Homo sapiens) (UniProt O14744+Q9BQA1); assay: Inhibition of human PRMT5/MEP50 using Histone H2 as substrate and SAM as cofactor at 10 uM by radiometric HotSpot assay relative to control; type: protein-complex assay
[41] = target: T8, Protein arginine N-methyltransferase 1; assay: Inhibition of PRMT1 (unknown origin)
Target sequence in this assay (Q99873 whole entry): as the sequence (Q99873 whole entry) above

T6 sequence (O60678 whole entry): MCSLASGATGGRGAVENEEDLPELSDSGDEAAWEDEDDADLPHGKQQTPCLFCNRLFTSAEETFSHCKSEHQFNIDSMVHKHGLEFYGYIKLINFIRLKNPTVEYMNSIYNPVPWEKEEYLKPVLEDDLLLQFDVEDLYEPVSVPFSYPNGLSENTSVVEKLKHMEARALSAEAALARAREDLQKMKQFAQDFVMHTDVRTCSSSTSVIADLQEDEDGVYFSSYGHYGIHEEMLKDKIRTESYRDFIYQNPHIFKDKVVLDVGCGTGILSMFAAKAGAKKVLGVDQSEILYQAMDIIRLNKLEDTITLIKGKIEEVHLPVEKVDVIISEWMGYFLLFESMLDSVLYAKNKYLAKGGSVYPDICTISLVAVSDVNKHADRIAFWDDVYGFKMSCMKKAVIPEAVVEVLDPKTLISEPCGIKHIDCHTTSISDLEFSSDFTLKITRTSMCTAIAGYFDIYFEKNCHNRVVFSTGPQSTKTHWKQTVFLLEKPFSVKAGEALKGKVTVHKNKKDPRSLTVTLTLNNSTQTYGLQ
T7 sequence (O14744 whole entry): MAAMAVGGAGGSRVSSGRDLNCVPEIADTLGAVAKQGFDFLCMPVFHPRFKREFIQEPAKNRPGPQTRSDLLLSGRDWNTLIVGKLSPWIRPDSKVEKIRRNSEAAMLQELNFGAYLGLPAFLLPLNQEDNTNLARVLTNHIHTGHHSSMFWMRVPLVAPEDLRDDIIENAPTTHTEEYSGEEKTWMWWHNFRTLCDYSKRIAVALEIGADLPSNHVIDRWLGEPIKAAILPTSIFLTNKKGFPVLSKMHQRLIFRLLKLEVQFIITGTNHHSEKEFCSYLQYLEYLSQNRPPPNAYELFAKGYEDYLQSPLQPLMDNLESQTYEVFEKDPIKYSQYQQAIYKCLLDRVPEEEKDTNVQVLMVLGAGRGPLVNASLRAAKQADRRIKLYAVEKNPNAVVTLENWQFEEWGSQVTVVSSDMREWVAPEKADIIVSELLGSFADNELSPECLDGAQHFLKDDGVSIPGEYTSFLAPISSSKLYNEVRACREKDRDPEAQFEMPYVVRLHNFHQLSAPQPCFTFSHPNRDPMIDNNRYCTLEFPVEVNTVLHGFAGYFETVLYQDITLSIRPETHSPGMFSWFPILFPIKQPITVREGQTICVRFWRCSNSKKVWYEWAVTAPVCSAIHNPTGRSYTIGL
T7 sequence (Q9BQA1 whole entry, further chain): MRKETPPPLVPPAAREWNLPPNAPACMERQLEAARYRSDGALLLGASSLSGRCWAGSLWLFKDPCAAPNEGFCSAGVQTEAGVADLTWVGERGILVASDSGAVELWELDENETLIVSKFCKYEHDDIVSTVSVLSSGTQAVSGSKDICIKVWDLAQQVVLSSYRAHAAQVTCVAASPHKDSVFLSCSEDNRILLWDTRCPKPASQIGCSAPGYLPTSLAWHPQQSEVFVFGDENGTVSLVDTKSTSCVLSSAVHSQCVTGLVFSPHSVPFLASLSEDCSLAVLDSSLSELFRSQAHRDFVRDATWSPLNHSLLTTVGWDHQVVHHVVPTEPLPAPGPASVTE
Sequence of Protein arginine N-methyltransferase 5 (O14744 whole entry): as the sequence (O14744 whole entry) above

CC1=C(C)C(=O)C(C(C)(C)CC(=O)N(CCSC[C@H]2O[C@@H](n3cnc4c(N)ncnc43)[C@H](O)[C@@H]2O)Cc2cccc(Br)c2)=C(C)C1=O
IC50 [1]: 343 nM
inhibition (4T1.2 [2]): Active
inhibition [3]: Dose-Dependent Effect
inhibition [4]: Dose-Dependent Effect
Ratio IC50 [5]: 2
IC50 [6]: 42.3 nM
Activity [7]: Non-Toxic
inhibition [8]: Dose-Dependent Effect
inhibition (4T1.2 [9]): Active
IC50 [10]: 30.6 nM
fraction unbound at 5 h, 5 µM [11]: 0.004
Drug metabolism [12]: Metabolite_Detected
IC50 [13]: 23.1 nM
remaining at 5 h, 5 µM [14]: 90.8%
inhibition [15]: Dose-Dependent Effect
Ratio IC50 [16]: 2
inhibition at 10 µM (MDA-MB-231): 100%

N=C(NCCSC[C@H]1O[C@@H](n2cnc3c(N)ncnc32)[C@H](O)[C@@H]1O)Nc1ccccc1Br
IC50 [17]: 32.1 nM
IC50 [18]: 30.5 nM
IC50 [19]: 5.05 nM
IC50 [20]: 555 nM
IC50 [21]: 321 nM
IC50 [22]: 18.2 nM

Nc1ncnc2c1ncn2[C@@H]1O[C@H](CSCCCCNCc2cccc(-c3ccc(Cl)cc3)c2)[C@@H](O)[C@H]1O
IC50 [23]: < 2.5 nM
IC50 [24]: 1600 nM
IC50 (PRMT5/MEP50 complex [25]): 150 nM
IC50 [26]: 7000 nM
IC50 [27]: 1500 nM
IC50 [28]: 140 nM
IC50 [29]: 1200 nM

N=C(N)NCCC[C@H](N)C(=O)NCC(=O)N[C@@H](CCCN)C(=O)N[C@@H](CCCNC(=N)NCCCSC[C@H]1O[C@@H](n2cnc3c(N)ncnc32)[C@H](O)[C@@H]1O)C(=O)O
IC50 [30]: 8300 nM
IC50 [31]: 5900 nM
IC50 [32]: > 10000 nM
IC50 [33]: 2.8 nM
IC50 (PRMT5/MEP50 complex [34]): 0.42 nM
IC50 [35]: > 10000 nM

N=C(NCCSC[C@H]1O[C@@H](n2cnc3c(N)ncnc32)[C@H](O)[C@@H]1O)Nc1ccccc1
IC50 [30]: 2400 nM
IC50 [31]: > 10000 nM
IC50 [32]: > 10000 nM
inhibition [36]: > 50%
inhibition [37]: > 95%
IC50 [18]: > 10000 nM
inhibition [38]: > 90%
IC50 (PRMT5/MEP50 complex [34]): 351 nM
IC50 [35]: 321 nM

Nc1ncnc2c1ncn2[C@@H]1O[C@H](CSCCNCc2cccc(Br)c2)[C@@H](O)[C@H]1O
Papp [39]: 0.3 ×10⁻⁶ cm/s
inhibition [37]: > 50%
inhibition [38]: 50%
inhibition [40]: 75%

Nc1nc2cc(CC[C@H]3C[C@@H](n4ccc5c(N)ncnc54)[C@H](O)[C@@H]3O)ccc2cc1Br [ONAMETOSTAT]
IC50 [17]: > 10000 nM
IC50 [41]: > 10000 nM
IC50 [18]: > 10000 nM
IC50 [19]: > 10000 nM
IC50 [20]: > 10000 nM
IC50 [21]: > 10000 nM

From ChEMBL document CHEMBL5608259 (J Med Chem, 2024)
